Laboratory results reported in article PMC9105583, “Stereoselective Synthesis and Anticancer Activity of 2,6-Disubstituted trans-3-Methylidenetetrahydropyran-4-ones” (Materials, 2022).
Where two headings read alike, the source gives them in different places.

What was measured:
Assay type in all cases: cell-based, human
γH2AX in HL-60 cells = experiment: γH2AX (H2AX pS139) DNA damage detection, flow cytometry; settings: compound at 2IC50, 24 h; control 1.1 ± 0.17%
Protocol: (§1) Analysis of apoptosis, DNA damage and cell cycle
(§2) Apoptosis, DNA damage, proliferation and cell cycle kinetics were investigated using the Apoptosis, DNA Damage and Cell Proliferation Kit (BD Biosciences, San Jose, CA, USA) according to the manufacturer’s protocol. Briefly, HL-60 cells (2.0 × 10^5 cells/mL) were seeded in 6-well plates and left to grow for 24 h. Then, the cells were treated with 13d or 13g at IC50 and 2IC50 concentrations. After 24 h incubation, the cells were treated with BrdU solution for 8 h. Then, the cells were collected by centrifugation, fixed and permeabilized. To expose the incorporated BrdU, the cells were incubated with DNase (300 µg/mL in PBS) for 1 h at 37 °C. Afterwards, the cells were stained with fluorescent antibodies, including Anti-BrdU, Anti-Cleaved PARP (Asp214) and Anti-H2AX (pS139) for 20 min at room temperature. Total DNA for cell cycle analysis was stained using DAPI solution (1 µg/mL in staining buffer). Finally, the cells were analyzed by flow cytometry using CytoFLEX (Beckman Coulter, Inc., Brea, CA, USA) and the data analysis was performed with Kaluza Analysis Software v2 (Beckam Coulter, Inc., Brea, CA. USA).
DNA damage can be the result of either single- or double-strand breaks (DSBs). DSB are considered the most dangerous, as it is assumed that in metazoan, just one DSB has the potential to trigger cell death. […]

[1] = system: cleaved PARP in HL-60 cells; experiment: Cleaved PARP (Asp214) detection, flow cytometry; settings: compound at 2IC50 concentration, 24 h; control 0.7 ± 0.13%
Protocol: as §1, §2
Another hallmark of apoptosis is cleavage of poly(ADP-ribose) polymerase 1 (PARP1) into 24 kDa and 89 kDa fragments executed by caspases 3 and 7. […]

MCF-7 cells = experiment: MTT assay, metabolic activity (cytotoxicity); settings: Homo sapiens, MCF7, 48 h incubation, mean ± SEM
Protocol: (§3) Metabolic activity by MTT assay
(§4) The MTT (3-([…])-2,5-diphenyl tetrazolium bromide) assay was performed to assess the cytotoxicity of the investigated compounds. Briefly, HL-60, MCF-7 and HUVEC cells were seeded in 24-well plates at density of 8 × 10^4/mL. After 24 h incubation, cells were treated with various concentrations of the compounds and incubated for another 24 h or 48 h. Then, the cells were incubated with MTT solution (100 µL; 5 mg/mL in PBS) for 1.5 h and centrifuged. The formazan product was dissolved in DMSO, and the absorption was measured using FlexStation 3 Multi-Mode Microplate Reader (Molecular Devices, LLC, San Jose, CA, USA) at 560 nm. Assays were performed twice in triplicate for each analog.
(§5) The cytotoxic activity of the obtained methylidenetetrahydropyran-4-ones was investigated in two cancer cell lines, human promyelocytic leukemia (HL-60) and breast cancer adenocarcinoma (MCF-7), and in healthy umbilical vein endothelial cells (HUVEC), for comparison. An anticancer drug, carboplatin, was used as a reference compound. Metabolic activity of the cells was assessed after 48 h incubation with various concentrations of the analogs (Table 6). Purity of all final compounds was determined on the basis of their ^1H NMR spectra (signal-to-noise ratio and presence of unidentified signals) and was at least 98%, in most cases even over 99%.

HL-60 cells = experiment: MTT assay, metabolic activity (cytotoxicity); settings: for IC50: MTT
Protocol: as §3, §4, §5

[2] = Homo sapiens, HL-60, 24 h, 24 h incubation, read-out: IC50 HL-60 after 24 h incubation
[3] = Homo sapiens, HL-60, 48 h, 48 h incubation, mean ± SEM, read-out: IC50 HL-60

| Compound | cells with γH2AX generation (H2AX phosphorylation) (γH2AX in HL-60 cells) | population of cells with cleaved PARP [1] | IC50 (MCF-7 cells) | selectivity, inhibitory activity in HL-60 versus HUVEC cells (cancer/healthy cell IC50 ratio) (HL-60 cells; HL-60 compared to normal HUVEC cells, 48 h) | IC50 (HL-60 cells; [2]) | IC50 (HL-60 cells; [3]) | IC50 (HL-60 cells; 48 h incubation, mean ± SEM, read-out: IC50 HL-60) |
| --- | --- | --- | --- | --- | --- | --- | --- |
| C=C1C(=O)C[C@H](C(C)C)O[C@H]1C(C)C (relative stereo) [Analog 13d, Trans-2,6-diisopropyl-3-methylidenetetrahydro-4H-pyran-4-one] | 38.4 ± 5.89% | 49.0 ± 1.61% | 14 ± 1 µM | over 3 fold | 15.7 ± 0.61 µM | 7.65 ± 0.05 µM | – |
| C=C1C(=O)C[C@H](c2ccccc2)O[C@H]1C(C)C (relative stereo) [Analog 13g, Trans-2-isopropyl-3-methylidene-6-phenyltetrahydro-4H-pyran-4-one] | 9.6 ± 2.94% | 13.5 ± 3.6% | 8.63 ± 0.07 µM | – | 6.49 ± 0.31 µM | < 4 µM | 3.69 ± 0.08 µM |
